Series [1] has as its system CEM/VLB1000 Cells. As to the kind of experiment: Enhancement of 3H-vinblastine accumulation. Particulars: midpoint (EC50) of minimum and maximum increase in accumulation of 3H-vinblastine, 3H-vinblastine 550 nM, 3 hours at 37°C, read-out: [^3H]VLB Accumulation (µM) CEM/VLB1000 Cells. In kind it is cell-based. Here is the method:
Enhancement of ^3H-vinblastine accumulation was also measured in the cell line. Corning Easy-Wash 96 well plates were pretreated with PBS and 1% BSA for 60 minutes and then dried. CEM/VLB1000 cells were seeded at 2 x 10^5, 40 µL volume. Plates were incubated at 37°C for 30-60 minutes prior to use. The reference reversing agent, verapamil, or the compound of the present invention was added to the well followed by addition of media containing ^3H-vinblastine (final concentration = 550 nM). Plates were allowed to incubate for 3 hours at 37°C. Cells were harvested onto pretreated Wallace filtermats B (pretreated overnight with 0.1% polyethyleneimine) using a TomTek harvester-96. After filtering, the filtermats were allowed to dry completely. Meltix B scintillant was then added to the filtermats. The filters were then placed in a 90°C oven for approximately 3-5 minutes and then removed. Scintillant was allowed to solidify on the filtermats. Filtermats were then placed in sample bags and read on a Wallace BetaPlate scintillation counter. The effect of compounds of the present invention in the cytotoxicity potentiation assays and vinblastine (VLB) accumulation assay is given in the Table below: […]

Series [2] concerns CEM/VLB1000 Cells. As to the kind of experiment: Cytotoxicity potentiation assay (alamar blue), vinblastine in CEM/VLB1000 cells. Particulars: read-out: Cytotoxicity Potentiation (µM) CEM/VLB1000 Cells; midpoint (EC50) of minimum and maximum cytotoxicity induced by 5 µg/mL vinblastine and compound; 48 hours incubation, alamar blue 24 hours. On the procedure:
Multidrug-resistant cell lines are easily obtainable for in vitro determination of drug sensitization by compounds of the present invention. In vitro potentiation of antineoplastic cytotoxicity by the imidazole derivatives of the present invention was measured in both CEM/VLB1000 and SK/VLB1000 cell lines. The multidrug resistant cell lines-were obtained from Dr. Victor Ling, Ontario Cancer Institute, Toronto, Canada. The CEM/VLB 1000 cell line was maintained as a suspension in minimum essential medium supplemented with 10% of fetal bovine serum in a humidied atmosphere of 95% air and 5% CO2 while the SK/VLB 1000 cell line was maintained as adherent cells using the identical medium conditions as the CEM cells. The CEM/VLB 1000 cells were seeded at a density of 5 x 10^4 cells/well in a 96 well microtiter plate while the SK/VLB 1000 cell line was seeded at a density of 2,500 cells/well after trypsinization. Vinblastine (5 µg/mL, for the CEM cells) or Taxol (3 µg/mL, for the SK cells) and compound (0.01 to 50 µM) were added directly to the wells. After an incubation of 48 hours in presence of drug, alamar blue (B. Page et al., Int. J. Oncol. 3: 473-476, 1993) was added (20 µL to the 200 µL cell suspension) for a period of 24 hours after which the fluorescence (excitation = […], emission = […]) was read for each well using a "CytoFluor" microtiter fluorometer plate reader. This assay measures the minimal concentration of compound necessary to enhance the cytotoxicity (EC50) of vinblastine in the MDR cell line.

In the next series the test system is SK/VLB1000 Cells. Description: Cytotoxicity potentiation assay (alamar blue), Taxol in SK/VLB1000 cells. In kind it is cell-based. Particulars: midpoint (EC50) of minimum and maximum cytotoxicity; method: Taxol 3 µg/mL for the SK cells (footnote: 5 µg/mL vinblastine); 48 hours incubation, alamar blue 24 hours. (Alamar Blue is a resazurin reagent that responds to reducing activity.)

Each structure is given as a SMILES string. Structures can show the parent of a compound that is named as a salt.

This is an account of results in patent EP0812829A1, “Substituted imidazoles as modulators of multi-drug resistance” (ONTOGEN CORPORATION, priority 1996, dated 1997).

Procedure for SK/VLB1000 Cells: In vitro potentiation of antineoplastic cytotoxicity by the imidazole derivatives of the present invention was measured in both CEM/VLB1000 and SK/VLB1000 cell lines. The multidrug resistant cell lines-were obtained from Dr. Victor Ling, Ontario Cancer Institute, Toronto, Canada. The CEM/VLB 1000 cell line was maintained as a suspension in minimum essential medium supplemented with 10% of fetal bovine serum in a humidied atmosphere of 95% air and 5% CO2 while the SK/VLB 1000 cell line was maintained as adherent cells using the identical medium conditions as the CEM cells. The CEM/VLB 1000 cells were seeded at a density of 5 x 10^4 cells/well in a 96 well microtiter plate while the SK/VLB 1000 cell line was seeded at a density of 2,500 cells/well after trypsinization. Vinblastine (5 µg/mL, for the CEM cells) or Taxol (3 µg/mL, for the SK cells) and compound (0.01 to 50 µM) were added directly to the wells. After an incubation of 48 hours in presence of drug, alamar blue (B. Page et al., Int. J. Oncol. 3: 473-476, 1993) was added (20 µL to the 200 µL cell suspension) for a period of 24 hours after which the fluorescence (excitation = 530 nM, emission = 590 nM) was read for each well using a "CytoFluor" microtiter fluorometer plate reader. This assay measures the minimal concentration of compound necessary to enhance the cytotoxicity (EC50) of vinblastine in the MDR cell line.

As to `Oc1ccc(-c2nc(-c3ccccc3)c(-c3ccccc3)n2-c2ccccc2)cc1` [Example 1, 2-(4-hydroxyphenyl)-1,4,5-triphenyl-imidazole trifluoroacetic acid salt], the EC50 in the series on CEM/VLB1000 Cells [1] worked out at 20 µM.
Consider `COc1ccc(-c2nc(-c3ccc(O)cc3)n(Cc3ccccc3)c2-c2ccc(OC)cc2)cc1` [Example 2, 1-benzyl-2-(4-hydroxyphenyl)-4,5-di-(4-methoxyphenyl)-imidazole trifluoroacetic acid salt], for which the EC50 with CEM/VLB1000 Cells [1] stood at 2 µM.
For `CN(C)c1ccc(-c2nc(-c3ccc(C(=O)O)cc3)[nH]c2-c2ccc(N(C)C)cc2)cc1` [Example 3, 2-(4-carboxyphenyl)-4,5-di-[4-(dimethylamino)-phenyl]-1(H)-imidazole], the EC50 in the series on CEM/VLB1000 Cells [2] is 10 µM.
`COC(=O)c1ccc(-c2nc(-c3ccc(N(C)C)cc3)c(-c3ccc(N(C)C)cc3)[nH]2)cc1` [Example 4, 4,5-di-[4-(dimethylamino)-phenyl]-2-[4-(methoxycarbonyl)-phenyl]-1(H)-imidazole]: the EC50 in the series with CEM/VLB1000 Cells [1] was found to be 5 µM; in the series on CEM/VLB1000 Cells [2], 0.3 µM; with SK/VLB1000 Cells, 1 µM.
In the case of `CCCCCCn1c(-c2ccc(C(=O)O)cc2)nc(-c2ccc(N(C)C)cc2)c1-c1ccc(N(C)C)cc1` [Example 5, 2-(4-carboxyphenyl)-4,5-di-[4-(dimethylamino)-phenyl]-1-(n-hexyl)-imidazole], the EC50 was 12 µM with CEM/VLB1000 Cells [1], 3 µM in the series on CEM/VLB1000 Cells [2] and 10 µM with SK/VLB1000 Cells.
Consider `CCCCCCn1c(-c2ccc(C(=O)OC)cc2)nc(-c2ccc(N(C)C)cc2)c1-c1ccc(N(C)C)cc1` [Example 6, 4,5-di-[4-(dimethylamino)-phenyl]-1-(n-hexyl)-2-[4-(methoxycarbonyl)-phenyl]-imidazole], for which, in the series with CEM/VLB1000 Cells [2], the EC50 was found to be 5 µM.
With `CN(C)c1ccc(-c2nc(-c3ccc(/C=C/C(=O)O)cc3)[nH]c2-c2ccc(N(C)C)cc2)cc1` [Example 7, 2-[4-(trans-2-carboxyethenyl)-phenyl] -4,5-di-[4-(dimethylamino)-phenyl]-1(H)-imidazole], the EC50 in the series with CEM/VLB1000 Cells [2] was 10 µM.
Take `COC(=O)C=Cc1ccc(-c2nc(-c3ccc(N(C)C)cc3)c(-c3ccc(N(C)C)cc3)[nH]2)cc1` [Example 8, 4,5-di-[4-(dimethylamino)-phenyl]-2-{4-[trans-(2-methoxycarbonyl)-ethenyl]-phenyl}-1(H)-imidazole]: the EC50 in the series with CEM/VLB1000 Cells [1] worked out at 5 µM; in the series with CEM/VLB1000 Cells [2], 0.3 µM; with SK/VLB1000 Cells it was 0.3 µM.
Take `CN(C)c1ccc(-c2nc(-c3ccc(O)cc3)[nH]c2-c2ccc(N(C)C)cc2)cc1` [Example 9, 4,5-di-[4-(dimethylamino)-phenyl]-2-(4-hydroxyphenyl)-1(H)-imidazole]: the values for the EC50 in the series with CEM/VLB1000 Cells [1], in the series on CEM/VLB1000 Cells [2] and in the series with SK/VLB1000 Cells were 20 µM, 10 µM and 10 µM, respectively.
Turning to `CN(C)c1ccc(-c2nc(-c3ccc(O)cc3)n(CCc3ccccc3)c2-c2ccc(N(C)C)cc2)cc1` [Example 10, 4,5-di-[4-(dimethylamino)-phenyl]-2-(4-hydroxyphenyl)-1-(2-phenylethyl)-imidazole], the figures for the EC50 in the series on CEM/VLB1000 Cells [1] and in the series with CEM/VLB1000 Cells [2] were 10 µM and 2 µM, respectively.
As for `CN(C)c1ccc(-c2nc(-c3ccc(C(=O)O)cc3)n(CCc3ccccc3)c2-c2ccc(N(C)C)cc2)cc1` [Example 11, 2-(4-carboxyphenyl)-4,5-di-[4-(dimethylamino)-phenyl]-1-(2-phenylethyl)-imidazole], in the series on CEM/VLB1000 Cells [2], the EC50 was 10 µM.
For `CN(C)c1ccc(-c2nc(-c3ccc(/C=C/C(=O)O)cc3)n(CCc3ccccc3)c2-c2ccc(N(C)C)cc2)cc1` [Example 12, 2-[4-(trans-2-carboxyethenyl)-phenyl]-4,5-di-[4-(dimethylamino)-phenyl]-1-(2-phenylethyl)-imidazole], in the series on CEM/VLB1000 Cells [2], the EC50 came to 10 µM.
Same read-out and setting: under `COC(=O)/C=C/c1ccc(-c2nc(-c3ccc(OC)cc3)c(-c3ccc(OC)cc3)n2CCCCCC(=O)OC)cc1` [Example 13, 4,5-di-(4-methoxyphenyl)-2-{4-[trans-(2-methoxycarbonyl)-ethenyl]-phenyl}-1-[5-(methoxycarbonyl)-n-pentyl)-imidazole] stands 0.6 µM.
As for `COc1ccc(-c2nc(-c3ccc(/C=C/c4ccccc4)cc3)n(CCCn3ccnc3)c2-c2ccc(OC)cc2)cc1` [Example 14, 2-(trans-4-stilbenyl)-1-[3-(imidazol-1-yl)-n-propyl]-4,5-di-(4-methoxyphenyl)-imidazole], the EC50 in the series with CEM/VLB1000 Cells [2] stood at 0.4 µM; in the series on SK/VLB1000 Cells it was 1 µM.
In the case of `COC(=O)/C=C/c1ccc(-c2nc(-c3ccc(N(C)C)cc3)c(-c3ccc(N(C)C)cc3)n2CCCCCC(=O)OC)cc1` [Example 15, 4,5-di-[4-(dimethylamino)-phenyl]-2-{4-[trans-(2-methoxycarbonyl)-ethenyl]-phenyl}-1-[5-(methoxycarbonyl)-n-pentyl-]-imidazole], the results for the EC50 with CEM/VLB1000 Cells [2] and in the series with SK/VLB1000 Cells were 0.6 µM and 5 µM, respectively.
Consider `CCCCCCn1c(-c2ccc(OCCCN(C)C)cc2)nc(-c2ccc(OC)cc2)c1-c1ccc(OC)cc1` [Example 16, 4,5-di-(4-methoxyphenyl)-2-{4-[3-(dimethylamino)-propyloxy]-phenyl}-1-(n-hexyl)-imidazole], for which the figures for the EC50 with CEM/VLB1000 Cells [2] and in the series with SK/VLB1000 Cells were 2 µM and 10 µM, respectively.
